# What was measured:
# Experiment in all cases: relative viability (nuclei count vs DMSO), 5 days (fraction); higher = more cells survive
# [1] = compound: CCN1CCC(CC1)N2C=C(N=N2)CNC3=CC4=C(C(=CN=C4C(=C3)Cl)C#N)NC5=CC(=C(C=C5)F)Cl [KIN001-266] + CC1(C)CCC(c2ccc(Cl)cc2)=C(CN2CCN(c3ccc(C(=O)NS(=O)(=O)c4ccc(N[C@H](CCN5CCOCC5)CSc5ccccc5)c(S(=O)(=O)C(F)(F)F)c4)cc3)CC2)C1 [Navitoclax] (partner 0.5 µM)
# Summary of the method: (§1)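 A single step with final 0.05% Triton X-100, 1% formaldehyde and 1 ug/ml Hoechst fixed the cells and stained nuclei 5 days after treatment. Lung cancer cell lines in 1536-well plates had been treated by pin tool the day after seeding with one drug alone or a fixed anchor-drug dose plus five library-drug doses (not always all listed) in √10 steps, and nuclei were counted on 4× images. Relative viability is the ratio of nuclei in treated wells to nuclei in vehicle wells, taken as the median of duplicate plates.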
# [2] = compound: CCN1CCC(CC1)N2C=C(N=N2)CNC3=CC4=C(C(=CN=C4C(=C3)Cl)C#N)NC5=CC(=C(C=C5)F)Cl [KIN001-266] + C[C@@H](Oc1cc(-c2cnn(C3CCNCC3)c2)cnc1N)c1c(Cl)ccc(F)c1Cl [Crizotinib] (partner 1 µM)
# Summary of the method: as §1
# [3] = compound: CCN1CCC(CC1)N2C=C(N=N2)CNC3=CC4=C(C(=CN=C4C(=C3)Cl)C#N)NC5=CC(=C(C=C5)F)Cl [KIN001-266] + Cc1cc(Nc2cc(N3CCN(C)CC3)nc(Sc3ccc(NC(=O)C4CC4)cc3)n2)n[nH]1 [Tozasertib] (partner 0.1 µM)
# Summary of the method: as §1
# [4] = compound: CCN1CCC(CC1)N2C=C(N=N2)CNC3=CC4=C(C(=CN=C4C(=C3)Cl)C#N)NC5=CC(=C(C=C5)F)Cl [KIN001-266] + O=C(CCCCCCC(=O)Nc1ccccc1)NO [Vorinostat] (partner 1 µM)
# Summary of the method: as §1
Cell Line,relative viability ([1]; first compound 0.08 µM),relative viability ([1]; first compound 0.253 µM),relative viability ([1]; first compound 0.8 µM),relative viability ([1]; first compound 2.53 µM),relative viability ([1]; first compound 8 µM),relative viability ([2]; first compound 0.08 µM),relative viability ([2]; first compound 0.253 µM),relative viability ([2]; first compound 0.8 µM),relative viability ([2]; first compound 2.53 µM),relative viability ([2]; first compound 8 µM),relative viability ([3]; first compound 0.08 µM),relative viability ([3]; first compound 0.253 µM),relative viability ([3]; first compound 0.8 µM),relative viability ([3]; first compound 2.53 µM),relative viability ([3]; first compound 8 µM),relative viability ([4]; first compound 0.08 µM),relative viability ([4]; first compound 0.253 µM),relative viability ([4]; first compound 0.8 µM),relative viability ([4]; first compound 2.53 µM),relative viability ([4]; first compound 8 µM)
NCI-H2228,0.738,0.937,1.4,0.851,0.514,0.583,0.435,0.565,0.493,0.471,0.312,0.255,0.266,0.192,0.264,0.631,0.645,0.722,0.509,0.422
COR-L23,0.99,1.03,1.01,1.01,0.54,0.751,0.832,0.642,0.561,0.416,0.19,0.182,0.206,0.164,0.151,0.397,0.46,0.62,0.422,0.237
NCI-H1993,1.15,0.96,0.855,0.731,0.681,0.954,0.858,0.982,0.815,0.776,0.596,0.563,0.574,0.567,0.553,0.959,0.604,0.685,0.713,0.471
NCI-H1437,1.09,1.11,1.08,1.12,0.911,0.896,0.973,0.924,0.891,0.779,0.425,0.366,0.393,0.38,0.264,0.931,0.841,0.797,0.841,0.572
UMC-11,0.3,0.319,0.38,0.355,0.278,0.577,0.538,0.504,0.637,0.335,0.209,0.215,0.213,0.219,0.213,0.334,0.421,0.431,0.411,0.44
201T,1.18,1.23,1.23,1.19,1.21,1.05,0.997,1.02,1.03,1.03,0.915,0.915,0.915,0.919,0.856,1.02,0.969,0.876,0.988,0.934
ChaGo-K-1,1.27,1.12,–,1.1,1.14,1.09,1.12,–,1.09,0.982,0.245,0.218,0.213,0.207,0.198,0.792,0.718,0.737,0.645,0.535
NCI-H1650,1.09,1.1,1.23,1.15,0.985,1.14,0.911,1.11,0.817,0.61,0.564,0.406,0.372,0.263,0.162,0.566,0.622,0.668,0.488,0.337
LOU-NH91,0.761,0.646,0.47,0.609,0.55,0.75,0.694,0.576,0.683,0.647,0.675,0.689,0.492,0.609,0.501,0.96,0.924,0.71,0.746,0.797
HOP-62,1.11,1.02,1.06,1.05,0.95,0.823,1.09,0.924,0.963,0.971,0.414,0.381,0.384,0.328,0.319,0.812,0.661,0.786,0.685,0.527
NCI-H1915,0.766,0.79,0.74,0.758,0.742,0.895,0.87,0.902,0.918,0.851,0.447,0.418,0.396,0.422,0.369,0.499,0.484,0.534,0.509,0.544
NCI-H3122,0.968,1.09,1.01,0.998,0.769,0.329,0.239,0.267,0.256,0.221,0.428,0.389,0.389,0.378,0.37,0.966,1.13,0.992,1.06,1.02
NCI-H1651,0.954,1.04,1.1,0.949,1.05,0.935,0.872,0.876,0.853,0.823,0.782,0.591,0.51,0.78,0.396,0.568,0.564,0.533,0.681,0.577
NCI-H838,1.09,1.19,1.22,1.08,0.867,0.873,0.849,0.965,0.844,0.689,0.266,0.299,0.257,0.254,0.22,0.714,0.775,0.697,0.626,0.515
NCI-H596,1.02,0.857,0.92,1,0.785,0.989,1.21,0.895,1.08,0.925,0.882,0.893,0.881,0.925,0.786,0.745,0.599,0.682,0.636,0.558
SK-LU-1,0.677,0.465,1.11,0.839,0.512,1.13,0.997,0.963,0.763,0.557,0.403,0.375,0.322,0.307,0.286,0.833,0.799,0.783,0.776,0.518

# Reference: the supplement of paper PMC10307832
